Experimental data published in patent US20230270704A1, “AMINOACIDS FOR TREATMENT OF NEUROLOGICAL DISORDERS” (ScandiBio Therapeutics AB, priority 2020, published 2023).

Legend:
8-OHdG = test: Alzheimer's disease study in HFD + icv STZ rats, immunohistochemical examination of brain tissues; assay type: in vivo, Sprague-Dawley rats; details: for 8-OHdG (IHC): HFD 5 weeks + STZ 3 mg/kg icv, substances once daily by oral gavage, score; for 8 OHdG expression in immunohistochemical staining: HFD + STZ rats, grade in words
Protocol: (§1) 12 weeks old female Sprague-Dawley rats (weighing 320-380 g) were kept at a controlled temperature of 22±2° C. and a controlled humidity of 50±5% on a 12-hour light/dark cycle. Food and water were available ad libitum. The animal experiments are performed at Medical Experimental Research Center, Ataturk University, Erzurum, Turkey. All experiments for the treatment of the animals were approved by the Ethics Committee of Atatürk University, and were conducted following the National Institutes of Health Guide for Care and Use of Laboratory Animals.
(§2) After acclimation to laboratory conditions for one (1) week, rats were randomly divided into two dietary regimens receiving either a Chow diet (CD) or a high-fat diet (HFD. The animals of Group 1 (n=4) were fed with only regular CD for five (5) weeks. The animals of Group 2 (n=4) were fed with CD and treated with STZ. The remaining animals (n=4) were fed with HFD for 3 weeks and sacrificed to verify the model development (Group 3). Groups 4-13 were fed with HFD for 5 weeks. After 3 weeks, the animals in Groups 5-13 were treated with STZ and administered with individual or combined substances. The animals in Group 4 were injected (icy) with a control substance (saline) after 3 weeks.
(§3) Before surgical procedures, the rats were anesthetized by intraperitoneal administration of ketamine-xylazine (50 mg/kg ketamine and 5 mg/kg xylazine) and placed individually in the stereotaxic instrument (Stoelting, Ill., USA). Stereotaxic coordinates for injection were 0.8 mm posterior to the bregma, 1.5 mm lateral to the sagittal suture and 3.6 mm below the brain surface (Pellegrino et al. 1979). Then, 10 microliters of STZ (3 mg/kg, Sigma-Aldrich, Darmstadt, Germany) were injected over 3 min with a Hamilton micro-syringe into the bilateral ventricle. The injection needles were left in place for an additional 2 min to allow diffusion.
(§4) For carrying out the treatment experiments, the HFD rats were randomly separated into nine (9) subgroups of four (4) animals (Groups 5-13).
(§5) The body weight of the rats was recorded each week. After 5 weeks, all animals were anesthetized with isoflurane and sacrificed. Blood samples were collected from the abdominal aorta and centrifuged at 8000 rpm for 15 min at 4° C. The plasma was separated and stored at −80° C. until further analysis. Other internal organs, including the heart, adipose tissues, liver, kidney, brain, muscle, intestine (duodenum, ileum, jejunum), pancreas, colon and stomach were immediately removed and then snap-frozen in liquid nitrogen and stored at −80° C.
Tissue sections taken on adhesive (poly-L-Lysin) slides for immunoperoxidase examination were deparaffinized and […]. After washing the tissues with suppressed endogenous peroxidase activity in 3% H2O2 were boiled in antigen retrieval solution. In order to prevent nonspecific background staining in the sections, protein block compatible with all primary and secondary antibodies was dropped and incubated for 5 minutes. 8-OHdG (Cat no: sc-66036 dilution ratio: 1/100 US) was used as the primary antibody for brain tissues.

H2A.X = test: Alzheimer's disease study in HFD + icv STZ rats, immunofluorescence examination of brain tissues (Texas Red); assay type: in vivo, Sprague-Dawley rats; details: for H2A.X (IFA Texas Red): HFD 5 weeks + STZ 3 mg/kg icv, substances once daily by oral gavage, score; for H2A.X expression in immunofluorescence staining: HFD + STZ rats, grade in words
Protocol: as §1, §2, §3, §4, §5
(§6) Tissue sections taken on adhesive (poly-L-Lysin) slides for immunoperoxidase examination were deparaffinized and […]. After washing the tissues with suppressed endogenous peroxidase activity in 3% H2O2 were boiled in antigen retrieval solution. In order to prevent nonspecific background staining in the sections, protein block compatible with all primary and secondary antibodies was dropped and incubated for 5 minutes. For brain tissues, primary antibody Caspase 3 (Cat No:sc-56053 Dilution Ratio:1/100 US) was dropped and incubated for 1 hour at 37° C. After washing, secondary FITC (Cat No: ab6717 Dilution Ratio:1/500 UK) was dropped and incubated at 37° C. for 30 minutes. The other primary antibody H2A.X (Cat No:I 0856-1 Dilution Ratio:1/100 US) was dropped and incubated at 37° C. for 1 hour. After washing, secondary Texas Red (Cat No: se-3917 Dilution Ratio:1/100 US) was dropped and incubated at 37° C. for 30 minutes. DAPI (Cat No:D-1306 Dilution Ratio:1/200 US) was dripped onto the washed tissues and incubated in the dark for 5 minutes, then glycerin was sealed.

Caspase 3 = test: Alzheimer's disease study in HFD + icv STZ rats, immunofluorescence examination of brain tissues (FITC); assay type: in vivo, Sprague-Dawley rats; details: for Caspase 3 (IFA FITC): HFD 5 weeks + STZ 3 mg/kg icv, substances once daily by oral gavage, score; for Caspase-3 expression in immunofluorescence staining: HFD + STZ rats, grade in words
Protocol: as §1, §2, §3, §4, §5, §6

brain tissues = test: Alzheimer's disease study in HFD + icv STZ rats, histopathology (HE) of brain tissues; assay type: in vivo, Sprague-Dawley rats
Protocol: as §1, §2, §3, §4, §5
Tissue samples obtained as a result of the experimental procedure were fixed in 10% buffered formalin solution for 48 hours. Following the routine tissue procedure, the tissues were embedded in paraffin blocks and 4 μm thick sections were taken from each block. Preparations prepared for histopathological examination were stained with hematoxylin-eosin (HE) and examined with a light microscope (Olympus BX51, Germany).

hepatic steatosis = test: short-term dietary supplementation with serine in obese subjects with hepatic steatosis; assay type: in vivo, human
Protocol: To test the model-based predictions, the present inventors assessed the effect of short-term dietary supplementation with serine on fatty liver and fasting levels of plasma markers of liver functions in six obese subjects (BMI 32.5±2.70 kg/m2) with hepatic steatosis. Each patient received one oral dose of ˜20 g of L-serine (200 mg/kg) per day for 14 days. The supplementation was well-tolerated by all subjects.

[1] = brain tissues, HFD 5 weeks + STZ 3 mg/kg icv, substances once daily by oral gavage, score
[2] = fasting plasma marker of liver function, after 14 days of ~20 g/day oral L-serine

| SMILES | 8-OHdG (IHC) (8-OHdG) | H2A.X (IFA Texas Red) (H2A.X) | Caspase 3 (IFA FITC) (Caspase 3) | Hyperemia (brain tissues; [1]) | degeneration in neurons (brain tissues; [1]) | necrosis in neurons (brain tissues; [1]) | 8 OHdG expression in immunohistochemical staining (8-OHdG) | H2A.X expression in immunofluorescence staining (H2A.X) | Caspase-3 expression in immunofluorescence staining (Caspase 3) | degeneration in neurons (brain tissues; HFD + STZ rats, grade in words) | hyperemia in brain tissues (brain tissues; HFD + STZ rats, grade in words) | necrosis in neurons (brain tissues; HFD + STZ rats, grade in words) | liver fat after supplementation (hepatic steatosis; after 14 days of ~20 g/day oral L-serine, decreased significantly from 26.8±6.0% before) [%] | ALP level (hepatic steatosis; [2]) | ALT level (hepatic steatosis; [2]) | AST level (hepatic steatosis; [2]) | tolerability of the supplementation (hepatic steatosis; six obese subjects, one oral dose of ~20 g L-serine (200 mg/kg) per day for 14 days) |
| --- | --- | --- | --- | --- | --- | --- | --- | --- | --- | --- | --- | --- | --- | --- | --- | --- | --- |
| NC(CO)C(=O)O (centres unmarked) [Group 6] | +++ (moderate (+++)) | +++ (moderate (+++)) | +++ (moderate (+++)) | +++ (moderate (+++)) | +++ (moderate (+++)) | ++ (mild (++)) | – | – | – | – | – | – | – | – | – | – | – |
| N[C@@H](CO)C(=O)O [Group 6, serine] | – | – | – | – | – | – | moderate | moderate | moderate | moderate | Moderate | mild | 20.4±7.0 | significantly decreased | significantly decreased | significantly decreased | well-tolerated |
| C[N+](C)(C)C[C@H](O)CC(=O)[O-].O=C(O)C(O)C(O)C(=O)O [Group 8, L-carnitine tartrate, reference compound] | – | – | – | – | – | – | moderate | moderate | moderate | moderate | Moderate | mild | – | – | – | – | – |
| NC(=O)c1ccc[n+](C2OC(CO)C(O)C2O)c1.[Cl-] (centres unmarked) [Group 9] | +++ (moderate (+++)) | +++ (moderate (+++)) | +++ (moderate (+++)) | +++ (moderate (+++)) | +++ (moderate (+++)) | ++ (mild (++)) | – | – | – | – | – | – | – | – | – | – | – |
| NC(=O)c1ccc[n+]([C@@H]2O[C@H](CO)[C@@H](O)[C@H]2O)c1.[Cl-] [Group 9, nicotinamide riboside chloride] | – | – | – | – | – | – | moderate | moderate | moderate | moderate | Moderate | mild | – | – | – | – | – |
| C[N+](C)(C)CC(O)CC(=O)O.C[N+](C)(C)CC(O)CC(=O)O.O=C([O-])C(O)C(O)C(=O)[O-] (centres unmarked) [Group 8] | +++ (moderate (+++)) | +++ (moderate (+++)) | +++ (moderate (+++)) | +++ (moderate (+++)) | +++ (moderate (+++)) | ++ (mild (++)) | – | – | – | – | – | – | – | – | – | – | – |
| CC(=O)N[C@@H](CS)C(=O)O [Group 7, N-acetyl-L-cysteine, reference compound] | – | – | – | – | – | – | moderate | moderate | moderate | severe | Severe | moderate | – | – | – | – | – |
| CC(=O)NC(CS)C(=O)O (centres unmarked) [Group 7] | +++ (moderate (+++)) | +++ (moderate (+++)) | +++ (moderate (+++)) | ++++ (severe (++++)) | ++++ (severe (++++)) | +++ (moderate (+++)) | – | – | – | – | – | – | – | – | – | – | – |
